Experimental data reported in the supplement of paper PMC8671470.

Assays:
Details in all cases: 72 h
Mono-Mac-6 [1] = assay: cell viability (% survival relative to DMSO control, bortezomib = 0%); higher = less cytotoxic
Method in brief: (§1)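 Fifteen myeloid leukaemia cell lines were exposed to compounds at 1, 10, 100, 1000 or 10000 nM in 384-well plates for 72 h at 37 °C and 5% CO2. Viability was read by CellTiter-Glo luminescence and normalised, with vehicle as 100% and a 10 µM positive control as 0%. Values are percent survival averaged over duplicates.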

BV-173 [2] = assay: as above
Method in brief: as §1

HEL [3] = assay: as above
Method in brief: as §1

THP-1 [4] = assay: as above
Method in brief: as §1

SHI-1 [5] = assay: as above
Method in brief: as §1

K-562 [6] = assay: as above
Method in brief: as §1

KU-812 [7] = assay: as above
Method in brief: as §1

HL-60 [8] = assay: as above
Method in brief: as §1

NOMO-1 [9] = assay: as above
Method in brief: as §1

ML-2 [10] = assay: as above
Method in brief: as §1

MV4-11 [11] = assay: as above
Method in brief: as §1

LAMA-84 [12] = assay: as above
Method in brief: as §1

HL-60 [13] = assay: cell viability (% survival relative to DMSO control); higher = less cytotoxic
Method in brief: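 HL-60 cells grown in RPMI 1640 with 10% FBS were rescreened against the full library in 384-well plates, in duplicate, at five tenfold concentrations from 1 to 10,000 nM, alongside DMSO or 100 nM of one of three metabolic inhibitors for 72 h at 37 °C, 5% CO2. Reference wells contained DMSO or 10 μM proteasome inhibitor. Viability was read with CellTiter-Glo and normalised to these reference wells, and where reported, area under the curve was taken from four-parameter log-logistic fits in drc and PharmacoGx.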

Mono-Mac-6 [14] = system: Mono-Mac-6
Method in brief: (§2)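 Dose–response data were fitted with a four-parameter log-logistic model. They came from fifteen myeloid leukaemia lines treated in duplicate with five tenfold doses from 1 to 10,000 nM for 72 h at 37 °C with 5% CO2, with ATP viability normalised to vehicle and to a positive control at 10 µM. The IC50 was derived from these fits.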

BV-173 [15] = system: BV-173
Method in brief: as §2

HEL [16] = system: HEL
Method in brief: as §2

THP-1 [17] = system: THP-1
Method in brief: as §2

SHI-1 [18] = system: SHI-1
Method in brief: as §2

KCL-22 = system: KCL-22
Method in brief: as §2

K-562 [19] = system: K-562
Method in brief: as §2

KU-812 [20] = system: KU-812
Method in brief: as §2

MOLM-13 = system: MOLM-13
Method in brief: as §2

HL-60 [21] = system: HL-60
Method in brief: as §2

KG-1 = system: KG-1
Method in brief: as §2

NOMO-1 [22] = system: NOMO-1
Method in brief: as §2

ML-2 [23] = system: ML-2
Method in brief: as §2

MV4-11 [24] = system: MV4-11
Method in brief: as §2

LAMA-84 [25] = system: LAMA-84
Method in brief: as §2

CN(C)C(=O)[C@H](O)[C@H](Cc1ccccc1)NC(=O)c1cc2cc(Cl)ccc2[nH]1
cell viability [%]
Details	1 nM	10 nM	100 nM	1000 nM	10000 nM
BV-173 [2]	88.3	110	98.4	105	73.2
HEL [3]	98.5	102	99.1	112	88.1
HL-60 [8]	85.4	100	108	174	89.1
K-562 [6]	79	84.3	94.3	105	79
KU-812 [7]	98.1	96	102	104	62.6
LAMA-84 [12]	94.6	97.6	114	107	83.3
ML-2 [10]	110	100	106	120	85
MV4-11 [11]	97.9	83.8	98.4	102	68.6
Mono-Mac-6 [1]	94.8	97.8	103	96.5	83.8
NOMO-1 [9]	101	102	106	106	95.4
SHI-1 [5]	106	97.8	115	114	99.6
THP-1 [4]	96.3	95.8	103	104	91.8

cell viability [%], HL-60 [13]
Details	0.001 µM	0.01 µM	0.1 µM	1 µM	10 µM
co-treatment: AZD3965 100 nM	105	101	98.4	101	100.2
co-treatment: DMSO vehicle	101	102.3	95.7	100	110
co-treatment: GSK2194069 100 nM	102	110	101	100	99.4
co-treatment: pictilisib 100 nM	97.4	107	93.8	96	97.3

Details	IC50 (cell viability) [µM]
BV-173 [15]	> 10
HEL [16]	> 10
HL-60 [21]	> 10
K-562 [19]	> 10
KCL-22	> 10
KG-1	> 10
KU-812 [20]	> 10
LAMA-84 [25]	> 10
ML-2 [23]	> 10
MOLM-13	> 10
MV4-11 [24]	> 10
Mono-Mac-6 [14]	> 10
NOMO-1 [22]	> 10
SHI-1 [18]	> 10
THP-1 [17]	> 10

COc1ccc(CNC(=O)Nc2ncc([N+](=O)[O-])s2)cc1
cell viability [%]
Details	1 nM	10 nM	100 nM	1000 nM	10000 nM
BV-173 [2]	91.7	100	101	97.7	92.7
HEL [3]	111	98	113	108	109
HL-60 [8]	108	101	115	95.6	104
K-562 [6]	85.6	103	108	89.4	97.7
KU-812 [7]	97.8	107	92.1	96.7	122
LAMA-84 [12]	109	105	110	104	108
ML-2 [10]	91.8	101	107	105	104
MV4-11 [11]	101	99.1	108	94.7	90.6
Mono-Mac-6 [1]	96	98	96.7	91.3	70.2
NOMO-1 [9]	108	97.1	97.9	106	99.5
SHI-1 [5]	105	101	103	106	89.8
THP-1 [4]	101	101	104	105	99.1

cell viability [%], HL-60 [13]
Details	0.001 µM	0.01 µM	0.1 µM	1 µM	10 µM
co-treatment: AZD3965 100 nM	99.1	97.6	102	91.4	95.2
co-treatment: DMSO vehicle	103	94.7	99.35	102	107
co-treatment: GSK2194069 100 nM	89.7	81	106	86.5	116
co-treatment: pictilisib 100 nM	84	103	106	96.3	105

Details	IC50 (cell viability) [µM]
BV-173 [15]	> 10
HEL [16]	> 10
HL-60 [21]	> 10
K-562 [19]	> 10
KCL-22	> 10
KG-1	> 10
KU-812 [20]	> 10
LAMA-84 [25]	> 10
ML-2 [23]	> 10
MOLM-13	> 10
MV4-11 [24]	> 10
Mono-Mac-6 [14]	> 10
NOMO-1 [22]	> 10
SHI-1 [18]	> 10
THP-1 [17]	> 10
